Assay results taken from the NIST ThermoML archive (doi:10.1021/acs.jced.6b00542).
± gives the expanded uncertainty stated by the source.

What was measured:
[1] = xn = mol fraction of the nth substance listed; settings: Liquid; for speed of sound: 100 kPa, Frequency=3 MHz, Sing-around technique in a fixed-path interferometer; for viscosity / mass density: 102 kPa; for viscosity: Concentric cylinders viscometry; for mass density: Vibrating tube method
[2] = for speed of sound: 100 kPa, Frequency=3 MHz, Sing-around technique in a fixed-path interferometer; for speed of sound / viscosity / mass density: Liquid; for viscosity / mass density: 102 kPa; for viscosity: Concentric cylinders viscometry; for mass density: Vibrating tube method; for surface tension liquid-gas: Pendant drop shape

CCCCCCCCCCCCCC [tetradecane] + CCCCc1ccccc1
[1], x2 = 0
Settings | mass density [kg/m3] | speed of sound [m/s] | viscosity [mPa·s]
293.15 K | 762.71 ± 0.14 | 1331.2 ± 0.9 | 2.3 ± 0.01
303.15 K | 755.65 ± 0.14 | 1293.6 ± 0.9 | 1.88 ± 0.01
313.15 K | 748.58 ± 0.15 | 1256.4 ± 0.9 | 1.56 ± 0.01
323.15 K | 741.5 ± 0.15 | 1220.1 ± 0.9 | 1.32 ± 0.01
333.15 K | 734.4 ± 0.15 | 1184.1 ± 0.9 | 1.13 ± 0.008
343.15 K | 727.5 ± 0.2 | – | 0.98 ± 0.007
353.15 K | 720.3 ± 0.2 | – | 0.858 ± 0.007
363.15 K | 713.1 ± 0.3 | – | 0.76 ± 0.006
373.15 K | 705.8 ± 0.3 | – | 0.679 ± 0.006

CCCCc1ccccc1 [butylbenzene] + CCCCCCCCCCCCCCCCC
[1], x1 = 1
Settings | mass density [kg/m3] | speed of sound [m/s] | viscosity [mPa·s]
303.15 K | 852.49 ± 0.11 | 1314.9 ± 0.9 | 0.91 ± 0.007
313.15 K | 844.43 ± 0.11 | 1276.6 ± 0.9 | 0.801 ± 0.006
323.15 K | 836.34 ± 0.11 | 1238.7 ± 0.8 | 0.713 ± 0.006
333.15 K | 828.21 ± 0.12 | 1201.4 ± 0.8 | 0.636 ± 0.006
343.15 K | 819.9 ± 0.22 | – | 0.571 ± 0.006
353.15 K | 811.7 ± 0.2 | – | 0.516 ± 0.006
363.15 K | 803.4 ± 0.2 | – | 0.469 ± 0.005
373.15 K | 795 ± 0.2 | – | 0.43 ± 0.005

CCCCCCCCCCCCCC [tetradecane]
[2]
Settings | mass density [kg/m3] | speed of sound [m/s] | surface tension liquid-gas [mN/m] | viscosity [mPa·s]
293.15 K | 762.71 ± 0.14 | 1331.2 ± 0.9 | – | 2.3 ± 0.01
294.6 K | – | – | 26.2 ± 0.3 | –
303.15 K | 755.65 ± 0.14 | 1293.6 ± 0.9 | – | 1.88 ± 0.01
313.15 K | 748.58 ± 0.15 | 1256.4 ± 0.9 | – | 1.56 ± 0.01
323.15 K | 741.5 ± 0.15 | 1220.1 ± 0.9 | – | 1.32 ± 0.01
333.15 K | 734.4 ± 0.15 | 1184.1 ± 0.9 | – | 1.13 ± 0.008
343.15 K | 727.5 ± 0.2 | – | – | 0.98 ± 0.007
353.15 K | 720.3 ± 0.2 | – | – | 0.858 ± 0.007
363.15 K | 713.1 ± 0.3 | – | – | 0.76 ± 0.006
373.15 K | 705.8 ± 0.3 | – | – | 0.679 ± 0.006

CCCCc1ccccc1 [butylbenzene]
[2]
Settings | mass density [kg/m3] | speed of sound [m/s] | surface tension liquid-gas [mN/m] | viscosity [mPa·s]
293.15 K | 860.51 ± 0.11 | 1353.7 ± 0.9 | – | 1.05 ± 0.01
294.2 K | – | – | 29.1 ± 0.3 | –
303.15 K | 852.49 ± 0.11 | 1314.9 ± 0.9 | – | 0.91 ± 0.007
313.15 K | 844.43 ± 0.11 | 1276.6 ± 0.9 | – | 0.801 ± 0.006
323.15 K | 836.34 ± 0.11 | 1238.7 ± 0.8 | – | 0.713 ± 0.006
333.15 K | 828.21 ± 0.12 | 1201.4 ± 0.8 | – | 0.636 ± 0.006
343.15 K | 819.9 ± 0.2 | – | – | 0.571 ± 0.006
353.15 K | 811.7 ± 0.2 | – | – | 0.516 ± 0.006
363.15 K | 803.4 ± 0.2 | – | – | 0.469 ± 0.005
373.15 K | 795 ± 0.2 | – | – | 0.43 ± 0.005

CCCCCCCCCCCCCCCC [hexadecane] + CCCCc1ccccc1
[1], x2 = 0
Settings | mass density [kg/m3] | speed of sound [m/s] | viscosity [mPa·s]
293.15 K | 773.52 ± 0.16 | 1357.3 ± 1.1 | 3.45 ± 0.02
303.15 K | 766.58 ± 0.17 | 1320 ± 1 | 2.74 ± 0.02
313.15 K | 759.66 ± 0.17 | 1283.4 ± 1 | 2.22 ± 0.01
323.15 K | 752.74 ± 0.17 | 1247.5 ± 1 | 1.84 ± 0.01
333.15 K | 745.82 ± 0.17 | 1212.1 ± 1 | 1.55 ± 0.01
343.15 K | 738.8 ± 0.3 | – | 1.32 ± 0.01
353.15 K | 731.9 ± 0.3 | – | 1.14 ± 0.01
363.15 K | 724.9 ± 0.3 | – | 1 ± 0.01
373.15 K | 717.8 ± 0.3 | – | 0.887 ± 0.007

CCCCCCCCCCCC [dodecane]
[2]
Settings | mass density [kg/m3] | speed of sound [m/s] | surface tension liquid-gas [mN/m] | viscosity [mPa·s]
293.15 K | 748.79 ± 0.16 | 1297.9 ± 1 | – | 1.47 ± 0.01
294.1 K | – | – | 25.1 ± 0.3 | –
303.15 K | 741.54 ± 0.16 | 1259.6 ± 1 | – | 1.24 ± 0.01
313.15 K | 734.25 ± 0.16 | 1221.9 ± 1 | – | 1.06 ± 0.01
323.15 K | 726.94 ± 0.17 | 1184.7 ± 1 | – | 0.916 ± 0.007
333.15 K | 719.59 ± 0.17 | 1148 ± 1 | – | 0.801 ± 0.007
343.15 K | 712.2 ± 0.3 | – | – | 0.706 ± 0.006
353.15 K | 704.7 ± 0.3 | – | – | 0.627 ± 0.006
363.15 K | 697.2 ± 0.3 | – | – | 0.562 ± 0.006
373.15 K | 689.6 ± 0.3 | – | – | 0.506 ± 0.006

CCCCCCCCCCCCCCCC [hexadecane]
[2]
Settings | mass density [kg/m3] | speed of sound [m/s] | surface tension liquid-gas [mN/m] | viscosity [mPa·s]
293.15 K | 773.52 ± 0.16 | 1357.3 ± 1.1 | – | 3.45 ± 0.02
294.8 K | – | – | 27.4 ± 0.3 | –
303.15 K | 766.58 ± 0.17 | 1320 ± 1 | – | 2.74 ± 0.02
313.15 K | 759.66 ± 0.17 | 1283.4 ± 1 | – | 2.22 ± 0.01
323.15 K | 752.74 ± 0.17 | 1247.5 ± 1 | – | 1.84 ± 0.01
333.15 K | 745.82 ± 0.17 | 1212.1 ± 1 | – | 1.55 ± 0.01
343.15 K | 738.8 ± 0.3 | – | – | 1.32 ± 0.01
353.15 K | 731.9 ± 0.3 | – | – | 1.14 ± 0.01
363.15 K | 724.9 ± 0.3 | – | – | 1 ± 0.01
373.15 K | 717.8 ± 0.3 | – | – | 0.887 ± 0.007

CCCCCCCCCC [decane] + CCCCc1ccccc1
[1], x2 = 0
Settings | mass density [kg/m3] | speed of sound [m/s] | viscosity [mPa·s]
293.15 K | 729.88 ± 0.17 | 1253.8 ± 1.4 | 0.922 ± 0.007
303.15 K | 722.31 ± 0.18 | 1214.5 ± 1.3 | 0.794 ± 0.007
313.15 K | 714.69 ± 0.18 | 1175.7 ± 1.2 | 0.693 ± 0.006
323.15 K | 707.02 ± 0.18 | 1137.3 ± 1.2 | 0.615 ± 0.006
333.15 K | 699.29 ± 0.18 | 1099.3 ± 1.1 | 0.545 ± 0.006
343.15 K | 691.5 ± 0.3 | – | 0.486 ± 0.006
353.15 K | 683.6 ± 0.3 | – | 0.436 ± 0.005
363.15 K | 675.6 ± 0.3 | – | 0.396 ± 0.005
373.15 K | 667.5 ± 0.3 | – | 0.362 ± 0.005

CCCCCCCCCCCC [dodecane] + CCCCc1ccccc1
[1], x2 = 0
Settings | mass density [kg/m3] | speed of sound [m/s] | viscosity [mPa·s]
293.15 K | 748.79 ± 0.16 | 1297.9 ± 1 | 1.47 ± 0.01
303.15 K | 741.54 ± 0.16 | 1259.6 ± 1 | 1.24 ± 0.01
313.15 K | 734.25 ± 0.16 | 1221.9 ± 1 | 1.06 ± 0.01
323.15 K | 726.94 ± 0.17 | 1184.7 ± 1 | 0.916 ± 0.007
333.15 K | 719.59 ± 0.17 | 1148 ± 1 | 0.801 ± 0.007
343.15 K | 712.2 ± 0.3 | – | 0.706 ± 0.006
353.15 K | 704.7 ± 0.3 | – | 0.627 ± 0.006
363.15 K | 697.2 ± 0.3 | – | 0.562 ± 0.006
373.15 K | 689.6 ± 0.3 | – | 0.506 ± 0.006

CCCCCCCCCC [decane]
[2]
Settings | mass density [kg/m3] | speed of sound [m/s] | surface tension liquid-gas [mN/m] | viscosity [mPa·s]
293.15 K | 729.88 ± 0.17 | 1253.8 ± 1.4 | – | 0.922 ± 0.007
294.6 K | – | – | 23.8 ± 0.3 | –
303.15 K | 722.31 ± 0.18 | 1214.5 ± 1.3 | – | 0.794 ± 0.007
313.15 K | 714.69 ± 0.18 | 1175.7 ± 1.2 | – | 0.693 ± 0.006
323.15 K | 707.02 ± 0.18 | 1137.3 ± 1.2 | – | 0.615 ± 0.006
333.15 K | 699.29 ± 0.18 | 1099.3 ± 1.1 | – | 0.545 ± 0.006
343.15 K | 691.5 ± 0.3 | – | – | 0.486 ± 0.006
353.15 K | 683.6 ± 0.3 | – | – | 0.436 ± 0.005
363.15 K | 675.6 ± 0.3 | – | – | 0.396 ± 0.005
373.15 K | 667.5 ± 0.3 | – | – | 0.362 ± 0.005

CCCCCCCCCCCCCCCCC [heptadecane]
[2]
Settings | mass density [kg/m3] | speed of sound [m/s] | viscosity [mPa·s]
303.15 K | 771.02 ± 0.13 | 1330.9 ± 1.2 | 3.25 ± 0.02
313.15 K | 764.16 ± 0.13 | 1294.5 ± 1.1 | 2.61 ± 0.01
323.15 K | 757.3 ± 0.14 | 1258.8 ± 0.9 | 2.14 ± 0.01
333.15 K | 750.45 ± 0.14 | 1223.8 ± 0.8 | 1.79 ± 0.01
343.15 K | 743.7 ± 0.23 | – | 1.52 ± 0.01
353.15 K | 736.8 ± 0.2 | – | 1.3 ± 0.01
363.15 K | 729.8 ± 0.2 | – | 1.14 ± 0.01
373.15 K | 723 ± 0.2 | – | 1 ± 0.01
